Here are results for 23 compounds from ChEMBL document CHEMBL1142252, “Identification of aminopyrazolopyridine ureas as potent VEGFR/PDGFR multitargeted kinase inhibitors” (Bioorg Med Chem Lett, 2008).

Converted amounts (≈) assume the structure as drawn.

One data set deals with Mus musculus. In words: Inhibition of estradiol-induced uterine edema in mouse at 10 mg/kg, po. The conditions noted are these: read-out: Inhibition.
A short description of data set [1]: Half life in mouse at 3 mg/kg, iv. The following applies: in vivo. Type of data set: ADME, organism-based. Further details: dose 3 mg/kg, route intravenous.
The nature of data set [2]: Volume of distribution in mouse at 3 mg/kg, iv. Type of data set: ADME, organism-based. Further details: dose 3 mg/kg, route intravenous. The following applies: in vivo.
The nature of data set [3]: Clearance in mouse at 3 mg/kg, iv. The following applies: in vivo. It counts as ADME, organism-based. Further details: dose 3 mg/kg, route intravenous.
A short description of data set [4]: AUC in mouse at 10 mg/kg, po. The following applies: plasma. Also noted: dose 10 mg/kg, route oral. It counts as ADME, organism-based.
Data set [5] can be described thus: Oral bioavailability in mouse at 10 mg/kg. Type of data set: ADME, organism-based. The conditions noted are these: in vivo.
The nature of data set [6]: Aqueous solubility at pH 7.2. Type of data set: physicochemical. The conditions noted are these: buffer.
For data set [7], the target named is Vascular endothelial growth factor receptor 1 (Homo sapiens, UniProt P17948). Kind of data set: Inhibition of FLT1 by HTRF assay. (In general: Time-resolved FRET reads energy transfer from a long-lived donor to a nearby acceptor.)
The target in data set [8] is T1, Receptor-type tyrosine-protein kinase FLT3 (Homo sapiens, UniProt P36888).
T1 sequence (P36888 whole entry): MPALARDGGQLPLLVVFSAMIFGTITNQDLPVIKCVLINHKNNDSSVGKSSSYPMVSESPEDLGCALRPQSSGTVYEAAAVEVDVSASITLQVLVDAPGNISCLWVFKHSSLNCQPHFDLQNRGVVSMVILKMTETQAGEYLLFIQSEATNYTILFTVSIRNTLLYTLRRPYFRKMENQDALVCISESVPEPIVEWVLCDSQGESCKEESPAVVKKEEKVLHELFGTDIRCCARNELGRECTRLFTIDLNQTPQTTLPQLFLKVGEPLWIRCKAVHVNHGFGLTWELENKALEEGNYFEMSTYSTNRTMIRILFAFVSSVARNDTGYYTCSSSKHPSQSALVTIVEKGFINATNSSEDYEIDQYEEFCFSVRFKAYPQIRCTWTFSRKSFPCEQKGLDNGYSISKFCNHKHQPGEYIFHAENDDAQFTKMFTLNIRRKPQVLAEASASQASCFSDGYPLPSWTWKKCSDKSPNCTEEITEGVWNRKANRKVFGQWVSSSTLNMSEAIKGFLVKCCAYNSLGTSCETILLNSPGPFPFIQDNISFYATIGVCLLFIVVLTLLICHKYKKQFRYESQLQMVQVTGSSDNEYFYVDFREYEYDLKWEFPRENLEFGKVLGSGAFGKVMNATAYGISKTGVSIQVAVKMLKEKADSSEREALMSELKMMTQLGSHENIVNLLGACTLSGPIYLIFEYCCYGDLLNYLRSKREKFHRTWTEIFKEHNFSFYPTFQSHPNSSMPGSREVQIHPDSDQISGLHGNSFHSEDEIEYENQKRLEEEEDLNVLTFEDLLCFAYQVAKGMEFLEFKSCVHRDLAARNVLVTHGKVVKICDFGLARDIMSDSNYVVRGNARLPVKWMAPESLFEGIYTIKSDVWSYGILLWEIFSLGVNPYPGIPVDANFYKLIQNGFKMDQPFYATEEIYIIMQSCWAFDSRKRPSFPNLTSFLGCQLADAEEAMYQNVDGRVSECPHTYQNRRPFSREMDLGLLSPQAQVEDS
In words: Inhibition of FLT3 by HTRF assay.

Data set [9] deals with Mast/stem cell growth factor receptor Kit (Homo sapiens, UniProt P10721). In words: Inhibition of cKit by HTRF assay.
In data set [10] the target is Macrophage colony-stimulating factor 1 receptor (Homo sapiens, UniProt P07333). Kind of data set: Inhibition of CSF1R by HTRF assay.
Data set [11] addresses Tyrosine-protein kinase Fyn (Homo sapiens, UniProt P06241). Kind of data set: Inhibition of FYN by HTRF assay.
For data set [12], the target named is T2, Vascular endothelial growth factor receptor 2 (Homo sapiens, UniProt P35968).
Description: Inhibition of KDR by HTRF assay
Data set [13] addresses T2, Vascular endothelial growth factor receptor 2. The source holds these as a separate data set.
Description: Inhibition of VEGF-induced human KDR phosphorylation in mouse 3T3 cells

T2 sequence (P35968 whole entry): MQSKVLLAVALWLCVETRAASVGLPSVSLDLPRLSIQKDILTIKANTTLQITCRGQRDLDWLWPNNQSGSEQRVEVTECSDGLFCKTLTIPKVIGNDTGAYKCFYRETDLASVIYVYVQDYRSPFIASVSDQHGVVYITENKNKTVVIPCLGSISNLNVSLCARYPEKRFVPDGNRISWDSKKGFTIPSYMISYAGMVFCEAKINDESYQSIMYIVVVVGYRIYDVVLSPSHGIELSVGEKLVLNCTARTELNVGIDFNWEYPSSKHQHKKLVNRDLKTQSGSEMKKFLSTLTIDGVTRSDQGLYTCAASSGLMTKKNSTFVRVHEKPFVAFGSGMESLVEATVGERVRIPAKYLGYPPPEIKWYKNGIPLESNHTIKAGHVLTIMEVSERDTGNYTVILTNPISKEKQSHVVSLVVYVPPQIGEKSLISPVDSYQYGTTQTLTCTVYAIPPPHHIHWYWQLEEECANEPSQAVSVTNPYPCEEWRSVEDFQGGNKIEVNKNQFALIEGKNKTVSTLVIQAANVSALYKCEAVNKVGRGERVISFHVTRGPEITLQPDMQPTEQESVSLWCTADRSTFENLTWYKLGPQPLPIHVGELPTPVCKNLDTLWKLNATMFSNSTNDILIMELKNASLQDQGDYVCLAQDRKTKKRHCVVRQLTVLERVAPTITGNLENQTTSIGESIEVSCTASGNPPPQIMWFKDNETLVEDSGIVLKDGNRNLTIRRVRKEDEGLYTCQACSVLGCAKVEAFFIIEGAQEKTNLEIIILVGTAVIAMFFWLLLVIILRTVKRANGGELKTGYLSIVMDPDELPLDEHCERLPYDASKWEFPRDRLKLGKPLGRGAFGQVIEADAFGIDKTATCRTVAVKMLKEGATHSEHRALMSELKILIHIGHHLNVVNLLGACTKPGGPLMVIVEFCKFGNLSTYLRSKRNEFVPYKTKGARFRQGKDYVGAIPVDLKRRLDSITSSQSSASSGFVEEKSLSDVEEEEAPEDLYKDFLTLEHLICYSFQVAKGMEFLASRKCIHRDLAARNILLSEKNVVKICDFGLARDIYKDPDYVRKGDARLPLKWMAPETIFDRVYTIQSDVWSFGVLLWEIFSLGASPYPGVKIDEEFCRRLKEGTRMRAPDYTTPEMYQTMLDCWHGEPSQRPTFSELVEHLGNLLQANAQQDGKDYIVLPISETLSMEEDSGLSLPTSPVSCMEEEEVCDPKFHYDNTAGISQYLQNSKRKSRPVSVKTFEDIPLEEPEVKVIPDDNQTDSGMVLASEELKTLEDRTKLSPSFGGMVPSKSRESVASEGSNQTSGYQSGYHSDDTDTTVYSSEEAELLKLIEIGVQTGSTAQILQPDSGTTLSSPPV
Chain of Mast/stem cell growth factor receptor Kit (P10721 whole entry): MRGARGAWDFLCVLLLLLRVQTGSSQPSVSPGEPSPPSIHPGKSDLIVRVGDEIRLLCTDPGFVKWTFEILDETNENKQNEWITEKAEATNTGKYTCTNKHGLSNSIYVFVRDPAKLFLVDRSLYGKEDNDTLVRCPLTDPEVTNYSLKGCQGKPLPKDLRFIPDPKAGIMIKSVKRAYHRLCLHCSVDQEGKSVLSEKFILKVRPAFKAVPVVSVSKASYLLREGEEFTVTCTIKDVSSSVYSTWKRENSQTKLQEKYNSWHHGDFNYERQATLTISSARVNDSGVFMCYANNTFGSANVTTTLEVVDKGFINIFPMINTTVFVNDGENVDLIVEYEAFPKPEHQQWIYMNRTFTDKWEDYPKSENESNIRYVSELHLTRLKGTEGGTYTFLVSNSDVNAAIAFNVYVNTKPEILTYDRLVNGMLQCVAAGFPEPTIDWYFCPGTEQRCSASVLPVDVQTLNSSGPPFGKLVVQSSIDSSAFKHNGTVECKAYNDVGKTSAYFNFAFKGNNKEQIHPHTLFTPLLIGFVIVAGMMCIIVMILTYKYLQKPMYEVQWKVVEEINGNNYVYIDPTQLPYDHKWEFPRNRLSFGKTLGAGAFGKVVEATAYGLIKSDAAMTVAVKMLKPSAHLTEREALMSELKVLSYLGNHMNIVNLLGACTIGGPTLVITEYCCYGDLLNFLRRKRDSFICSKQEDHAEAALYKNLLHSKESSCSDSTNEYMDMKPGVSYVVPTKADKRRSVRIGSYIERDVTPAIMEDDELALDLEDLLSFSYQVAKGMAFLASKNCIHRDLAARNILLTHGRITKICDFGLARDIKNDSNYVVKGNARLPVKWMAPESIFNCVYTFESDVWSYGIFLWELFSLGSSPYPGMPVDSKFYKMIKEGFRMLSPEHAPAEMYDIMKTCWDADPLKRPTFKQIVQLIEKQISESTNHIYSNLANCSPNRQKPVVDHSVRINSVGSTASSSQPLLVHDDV
Chain of Vascular endothelial growth factor receptor 1 (P17948 whole entry): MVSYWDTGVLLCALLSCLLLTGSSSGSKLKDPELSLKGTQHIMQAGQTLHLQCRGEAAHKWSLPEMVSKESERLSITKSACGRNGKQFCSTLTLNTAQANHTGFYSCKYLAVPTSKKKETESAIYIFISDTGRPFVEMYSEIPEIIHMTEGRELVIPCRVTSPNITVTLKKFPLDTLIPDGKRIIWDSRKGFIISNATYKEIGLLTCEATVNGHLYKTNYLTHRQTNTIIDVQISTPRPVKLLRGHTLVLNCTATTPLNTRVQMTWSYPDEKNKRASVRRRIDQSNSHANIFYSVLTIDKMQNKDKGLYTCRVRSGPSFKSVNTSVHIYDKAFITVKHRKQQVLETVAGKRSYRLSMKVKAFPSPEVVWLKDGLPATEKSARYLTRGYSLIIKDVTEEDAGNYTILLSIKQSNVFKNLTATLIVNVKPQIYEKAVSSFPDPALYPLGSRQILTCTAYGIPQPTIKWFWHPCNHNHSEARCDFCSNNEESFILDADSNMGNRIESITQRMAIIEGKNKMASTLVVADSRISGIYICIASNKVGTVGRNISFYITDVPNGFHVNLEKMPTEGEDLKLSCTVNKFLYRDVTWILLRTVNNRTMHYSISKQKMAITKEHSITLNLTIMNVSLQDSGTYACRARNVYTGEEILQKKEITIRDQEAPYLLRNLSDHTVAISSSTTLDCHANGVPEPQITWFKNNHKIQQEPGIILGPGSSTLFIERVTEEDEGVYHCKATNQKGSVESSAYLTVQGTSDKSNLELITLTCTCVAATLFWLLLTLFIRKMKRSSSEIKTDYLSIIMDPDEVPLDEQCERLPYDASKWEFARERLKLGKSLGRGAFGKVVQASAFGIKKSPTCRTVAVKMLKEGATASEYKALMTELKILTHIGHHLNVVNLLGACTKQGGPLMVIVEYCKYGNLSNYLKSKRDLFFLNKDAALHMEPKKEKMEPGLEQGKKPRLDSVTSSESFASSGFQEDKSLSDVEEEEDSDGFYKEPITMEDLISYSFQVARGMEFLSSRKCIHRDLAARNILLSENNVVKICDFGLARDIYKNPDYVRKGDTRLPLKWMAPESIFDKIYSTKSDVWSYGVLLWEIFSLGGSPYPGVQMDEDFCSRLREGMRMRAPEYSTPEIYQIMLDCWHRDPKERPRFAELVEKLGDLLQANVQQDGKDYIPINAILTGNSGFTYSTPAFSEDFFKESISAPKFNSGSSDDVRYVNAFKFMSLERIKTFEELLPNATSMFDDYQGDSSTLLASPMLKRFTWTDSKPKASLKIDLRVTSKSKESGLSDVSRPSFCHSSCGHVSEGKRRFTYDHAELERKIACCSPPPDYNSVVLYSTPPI
Chain of Macrophage colony-stimulating factor 1 receptor (P07333 whole entry): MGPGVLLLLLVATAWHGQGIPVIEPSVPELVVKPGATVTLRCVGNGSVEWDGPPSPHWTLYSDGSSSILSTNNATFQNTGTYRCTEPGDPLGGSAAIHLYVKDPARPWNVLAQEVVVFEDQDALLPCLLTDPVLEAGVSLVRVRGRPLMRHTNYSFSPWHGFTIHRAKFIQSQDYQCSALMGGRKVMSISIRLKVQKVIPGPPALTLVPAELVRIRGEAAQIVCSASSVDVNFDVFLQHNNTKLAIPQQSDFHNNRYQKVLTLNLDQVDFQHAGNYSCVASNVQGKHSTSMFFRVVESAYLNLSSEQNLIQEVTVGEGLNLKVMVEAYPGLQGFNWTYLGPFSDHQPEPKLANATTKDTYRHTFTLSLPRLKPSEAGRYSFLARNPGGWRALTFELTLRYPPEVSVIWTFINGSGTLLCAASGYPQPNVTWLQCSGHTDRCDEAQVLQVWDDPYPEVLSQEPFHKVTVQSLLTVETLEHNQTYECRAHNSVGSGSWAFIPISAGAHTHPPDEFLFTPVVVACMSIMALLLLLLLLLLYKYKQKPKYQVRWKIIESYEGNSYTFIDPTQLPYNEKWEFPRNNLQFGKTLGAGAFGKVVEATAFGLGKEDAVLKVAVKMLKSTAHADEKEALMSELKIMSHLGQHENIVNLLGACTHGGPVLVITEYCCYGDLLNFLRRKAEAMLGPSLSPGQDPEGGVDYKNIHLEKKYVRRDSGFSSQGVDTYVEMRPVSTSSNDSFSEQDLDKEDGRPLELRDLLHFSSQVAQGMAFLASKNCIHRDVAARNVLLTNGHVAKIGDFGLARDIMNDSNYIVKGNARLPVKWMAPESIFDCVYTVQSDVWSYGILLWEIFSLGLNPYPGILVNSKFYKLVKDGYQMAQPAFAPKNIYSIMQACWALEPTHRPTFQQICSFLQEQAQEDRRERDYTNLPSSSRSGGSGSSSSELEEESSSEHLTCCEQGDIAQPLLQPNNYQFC

For `Nc1n[nH]c2nccc(-c3ccc(NC(=O)Nc4ccccc4)cc3)c12`, the inhibition in vivo at 10 mg/kg in the data set with Mus musculus turned out to be 39%.
In the case of `Cc1cccc(NC(=O)Nc2ccc(-c3cncc4c3c(N)nn4C)cc2)c1`, the inhibition in vivo at 10 mg/kg in the data set on Mus musculus was 79%. In addition, the half-life (as a rule, the time needed for the level to fall by half in the phase considered) in data set [1] was 36 min. Also, the Vd (usually a proportionality between amount in the body and measured concentration, not a real space) in data set [2] is 0.66 L/kg. The clearance (commonly a measure of how efficiently the substance is removed, as volume per time) in data set [3] came to 12.7 mL/min/kg. For the same compound, the AUC (in general, concentration integrated over time) in data set [4] was 25 µM·h. For the same compound, the bioavailability (in general, the share of a dose that reaches the circulation, judged against a reference dose that is usually intravenous) in [5] was 71%.
On to `Cc1cc(C)cc(NC(=O)Nc2ccc(-c3ccnc4[nH]nc(N)c34)cc2)c1`, for which, in the data set with Mus musculus, the inhibition in vivo at 10 mg/kg came out at 77%.
As for `Cc1ccc(F)c(NC(=O)Nc2ccc(-c3cccc4[nH]nc(N)c34)cc2)c1` [LINIFANIB], the solubility – broadly, how much of the substance goes into solution per volume – in data set [6] was 0.07 µM (≈ 0.0263 µg/mL).
In the case of `Nc1n[nH]c2nccc(-c3ccc(NC(=O)Nc4cccc(C(F)(F)F)c4)cc3)c12`, the IC50 (as a rule, the concentration needed to halve the response being measured) in data set [7] was 5 nM; in data set [8], 2 nM; in data set [9], 7 nM; in data set [10], 3 nM; in data set [11] it was 11800 nM.
On to `Cc1ccccc1NC(=O)Nc1ccc(-c2ccnc3[nH]nc(N)c23)cc1`, for which the inhibition in vivo at 10 mg/kg in the data set on Mus musculus was below 5%. The IC50 was determined as 35 nM in data set [12] and 2.2 nM in data set [13].
For `Cc1cc(C)cc(NC(=O)Nc2ccc(-c3nccc4[nH]nc(N)c34)cc2)c1`, the inhibition in vivo at 10 mg/kg in the data set on Mus musculus is below 5%. Besides, in [1], the half-life was 27 min. This compound also had a Vd in data set [2] of 1.71 L/kg. For the same compound, the clearance in data set [3] was found to be 43.7 mL/min/kg. In [4], this compound returned an AUC of 0.89 µM·h. The compound further gave a bioavailability in [5] of 9%.
In the case of `Cc1ccc(F)c(NC(=O)Nc2ccc(-c3cncc4[nH]nc(N)c34)cc2)c1`, the inhibition in vivo at 10 mg/kg with Mus musculus stood at 98%. For the same compound, the solubility in data set [6] worked out at 5.8 µM (≈ 2.18 µg/mL).
In the case of `Cc1cc(NC(=O)Nc2ccc(-c3cncc4[nH]nc(N)c34)cc2)ccc1F`, the inhibition in vivo at 10 mg/kg in the data set with Mus musculus stood at 19%.
Take `Cc1cc(NC(=O)Nc2ccc(-c3nccc4[nH]nc(N)c34)cc2)ccc1F`: the inhibition in vivo at 10 mg/kg in the data set on Mus musculus was below 5%.
On to `Cc1ccc(F)c(NC(=O)Nc2ccc(-c3nccc4[nH]nc(N)c34)cc2)c1`, for which the inhibition in vivo at 10 mg/kg in the data set with Mus musculus was below 5%. The solubility in [6] came to 9.5 µM (≈ 3.58 µg/mL).
Turning to `Cc1cc(NC(=O)Nc2ccc(-c3ccnc4[nH]nc(N)c34)cc2)ccc1F`, in the data set on Mus musculus, the inhibition in vivo at 10 mg/kg worked out at 108%.
For the compound `Cc1ccc(F)c(NC(=O)Nc2ccc(-c3cncc4c3c(N)nn4C)cc2)c1`, the inhibition in vivo at 10 mg/kg in the data set on Mus musculus turned out to be 72%. For the same compound, the half-life in data set [1] is 90 min. The same compound yielded a Vd in data set [2] of 1.48 L/kg. In [3], this compound registered a clearance of 11.5 mL/min/kg. Besides, in [4], the AUC worked out at 30.2 µM·h. This compound displayed a bioavailability in [5] of 81%. In addition, the values for the IC50 in data set [12] and in data set [13] were 7.7 nM and 3 nM, respectively.
`Cc1ccc(NC(=O)Nc2ccc(-c3ccnc4[nH]nc(N)c34)cc2)cc1`: in the data set with Mus musculus, the inhibition in vivo at 10 mg/kg was below 5%.
Take `Nc1n[nH]c2ccnc(-c3ccc(NC(=O)Nc4cccc(C(F)(F)F)c4)cc3)c12`: the inhibition in vivo at 10 mg/kg with Mus musculus is below 5%.
The same measure, in the same setting: next, `Cc1cccc(NC(=O)Nc2ccc(-c3cncc4[nH]nc(N)c34)cc2)c1`: 50%.
Consider `Cn1nc(N)c2c(-c3ccc(NC(=O)Nc4ccc(F)c(C(F)(F)F)c4)cc3)cncc21`, for which the inhibition in vivo at 10 mg/kg with Mus musculus stood at 59%.
For `Cc1ccc(F)c(NC(=O)Nc2ccc(-c3ccnc4[nH]nc(N)c34)cc2)c1`, the inhibition in vivo at 10 mg/kg in the data set on Mus musculus was found to be 66%. Besides, the half-life in data set [1] is 60 min. Moreover, the Vd in [2] came out at 1.5 L/kg. Further, the clearance in data set [3] was 17.3 mL/min/kg. Moreover, in data set [4], the AUC stood at 15.7 µM·h. Further, the bioavailability in [5] was determined as 62%.
In the case of `Nc1n[nH]c2nccc(-c3ccc(NC(=O)Nc4cccc(Cl)c4)cc3)c12`, the inhibition in vivo at 10 mg/kg in the data set with Mus musculus was determined as 23%. For the same compound, the concentration in solution in data set [6] (solubility) was 1.6 µM (≈ 0.606 µg/mL).
As to `Nc1n[nH]c2nccc(-c3ccc(NC(=O)Nc4ccc(F)c(Cl)c4)cc3)c12`, the inhibition in vivo at 10 mg/kg with Mus musculus came out at 55%.
Same read-out and setting: next, `Cn1nc(N)c2c(-c3ccc(NC(=O)Nc4cccc(Cl)c4)cc3)cncc21`: 52%; `Nc1n[nH]c2cncc(-c3ccc(NC(=O)Nc4cc(C(F)(F)F)ccc4F)cc3)c12`: 35%; `Nc1n[nH]c2cncc(-c3ccc(NC(=O)Nc4cccc(Cl)c4)cc3)c12`: below 5%.
